In general, IC50 refers to the concentration that inhibits the measured activity by half.

The subject of this test is LPS induced IL-6 secretion from whole blood. Nature of the test: Measurement of LPS Induced IL-6 Secretion from Whole Blood. It counts as cell-based. The note with it: IL-6 in whole blood, LPS 200 ng/ml, 24 hours. The protocol: Activation of monocytic cells by agonists of toll-like receptors such as bacterial lipopolysaccharide (LPS) results in production of key inflammatory mediators including IL-6. Such pathways are widely considered to be central to the pathophysiology of a range of auto-immune and inflammatory disorders.
Compounds to be tested are diluted to give a range of appropriate concentrations of which 1 μl of the diluted stocks is added to a 96 well plate. Following addition of whole blood (130 μl) the plates are incubated at 37 degrees (5% CO2) for 30 min before the addition of 10 μl of 2.8 ug/ml LPS, diluted in complete RPMI 1640 (final concentration=200 ng/ml), to give a total volume of 140 ul per well. After further incubation for 24 hours at 37 degrees, 140 μl of PBS are added to each well. The plates are sealed, shaken for 10 minutes and then centrifuged (2500 rpm×10 min). 100 μl of the supernatant are removed and IL-6 levels assayed by immunoassay (typically by MesoScale Discovery technology) either immediately or following storage at −20 degrees. Concentration response curves for each compound was generated from the data and an IC50 value was calculated

`COc1cc2c(cc1-c1c(C)noc1C)ncc1nc(NCCO)n(CC3CCOCC3)c12` [Example 2, 2-{[7-(3,5-dimethyl-4-isoxazolyl)-8-(methyloxy)-1-(tetrahydro-2H-pyran-4-ylmethyl)-1H-imidazo[4,5-c]quinolin-2-yl]amino}ethanol] had an IC50 greater than 3.16 µM.

`COc1cc2c(cc1-c1c(C)noc1C)ncc1nc(NCCN)n(CC3CCOCC3)c12` [Example 8, N1-(7-(3,5-dimethylisoxazol-4-yl)-8-methoxy-1-((tetrahydro-2H-pyran-4-yl)methyl)-1H-imidazo[4,5-c]quinolin-2-yl)ethane-1,2-diamine] had an IC50 greater than 3.16 µM.

(Values after US8846709B2, “7-(3,5-dimethyl-4-isoxazolyl)-8-(methyloxy)-1H-imidazo[4,5-C]quinoline derivatives” (GlaxoSmithKline LLC, priority 2011, dated 2014).)
